For 4 compounds, IC50 results are on record in patent US9133146B2, “Benzodioxane inhibitors of leukotriene production” (Boehringer Ingelheim International GmbH, priority 2011, dated 2015).

The test system of this experiment is synthesis of LTB4 in human whole blood. Kind of experiment: human whole blood (HWB) assay, LTB4 production inhibition after calcimycin. In kind it is cell-based. To be noted: heparinized human whole blood, calcimycin 20 μM, 37° C., plasma LTB4. The procedure:
The compounds of the invention are additionally tested in a human whole blood (HWB) assay to determine their ability to inhibit the synthesis of LTB4 in a cellular system. Compounds are combined with heparinized human whole blood and incubated for 15 minutes at 37° C. Calcimycin (20 μM final, prepared in phosphate-buffered saline, pH 7.4) is then added and the mixture is incubated for another 30 minutes at 37° C. The samples are centrifuged for 5 min at low speed (1500×g) and the plasma layer is removed. Plasma LTB4 concentrations are then measured using an antibody-based homogenous time-resolved fluorescence method (CisBio, Bedford, Mass.). In general, the preferred potency range (IC50) of compounds in the HWB assay is between 10 nM to 10 μM, the more preferred potency range is 10 nM to 1 μM, and the most preferred potency range is 10 nM to 100 nM.
As usually defined, the IC50 is the concentration needed to halve the response being measured. For `CC(C)(O)C(=O)NC1CCN(Cc2ccc([C@H]3COc4ccccc4O3)cc2)CC1` [Example 220, N-(1-{4-[(2S)-2,3-dihydro-1,4-benzodioxin-2-yl]benzyl}piperidin-4-yl)-2-hydroxy-2-methylpropanamide], the IC50 was 91.1 nM.
Under `c1ccc2c(c1)OC[C@H](c1ccc(CN3CCC[C@H]4CCCCC43)cc1)O2` (stereo in doubt) [Example 85, (4aR,8aS)-1-{4-[(2S)-2,3-dihydro-1,4-benzodioxin-2-yl]benzyl}decahydroquinoline] stands 305 nM; under `c1cnc2c(c1)OC[C@H](c1ccc(CN3[C@H]4CC[C@@H]3CC4)cc1)O2` [Example 145, (3S)-3-{4-[(1s,4s)-7-azabicyclo[2.2.1]hept-7-ylmethyl]phenyl}-2,3-dihydro[1,4]dioxino[2,3-b]pyridine], 28.4 nM; under `O[C@@H]1CCN(Cc2ccc(C3COc4ccccc4O3)cc2)C1` (mixture of isomers) [Example 9, (3S)-1-[4-(2,3-dihydro-1,4-benzodioxin-2-yl)benzyl]pyrrolidin-3-ol], 285 nM.
